From patent publication US20080318837A1, “Pharmaceutical Formation For Increased Epithelial Permeability of Glucose-Regulating Peptide” (priority 2003, published 2008)

Tests used:
[1] = aqueous solution, physiologic pH; cited from earlier work
[2] = system: ciliary motility; conditions: cited from earlier work
[3] = system: EpiAirway tracheal/bronchial epithelial cell membrane; assay: Transepithelial electrical resistance (TEER/TER), EpiAirway model; type: cell-based; conditions: Table 6 formulations, 2 mg/mL GLP-1
Method: Triplicate samples of each formulation and controls were evaluated using the EpiAirway System in vitro model tracheal/bronchial epithelial cell membrane inserts by MatTek Corp. (Ashland, Mass.), catalog #Air-100.
EpiAirway™ culture membranes were received the day before the experiments started. They were shipped in phenol red-free and hydrocortisone-free Dulbecco's Modified Eagle's Medium (DMEM). Each tissue insert was placed into a well of a 6 well plate containing 0.9 ml of serum free DMEM. The membranes were then cultured for 24 hrs at 37° C./5% CO2 to allow tissues to equilibrate. […]
TEER measurements were read using a Tissue Resistance Measurement Chamber connected to an Epithelial Voltohmeter with the electrode leads, both from World Precision Instruments. First, background TEER was read for each insert on the day the experiment began. After TEER was read, 1 ml fresh media was placed in the bottom of each well in a 6-well plate. […]
The electrodes and a tissue culture blank insert were equilibrated for at least 20 min in fresh media with the power off prior to checking calibration. The background resistance was measured with 1.5 ml media in the Endohm tissue chamber and 300 μl media in a blank Millicell-CM insert. […] For each TEER determination, 300 μl media was added to the insert followed by a 20 min incubation at RT before placement in the Endohm chamber to read TEER. […]

[4] = system: EpiAirway tracheal/bronchial epithelial cell membrane
Method: Triplicate samples of each formulation and controls were evaluated using the EpiAirway System in vitro model tracheal/bronchial epithelial cell membrane inserts by MatTek Corp. (Ashland, Mass.), catalog #Air-100. […] The epithelial cells are grown on porous membrane-bottomed cell culture inserts at an air-liquid interface, which results in differentiation of the cells to a highly polarized morphology. The apical surface is ciliated with a microvillous ultrastructure and the epithelium produces mucus (the presence of mucin has been confirmed by immunoblotting). The inserts have a diameter of 0.875 cm, providing a surface area of 0.6 cm^2. The cells are plated onto the inserts at the factory approximately three weeks before shipping.
EpiAirway™ culture membranes were received the day before the experiments started. They were shipped in phenol red-free and hydrocortisone-free Dulbecco's Modified Eagle's Medium (DMEM). […]
The cell viability of each tissue culture insert was tested by MTT assay. Cell viability was assessed using the MTT assay (MTT-100, MatTek kit). […] The optical density of the samples was measured at 550 nm on a μQuant optical density plate reader using KCJr software.
The MTT percentage was calculated by dividing the measured MTT value for each formulation by the MTT value of the control formulation multiplied by 100. […]

[5] = system: EpiAirway tracheal/bronchial epithelial cell membrane; assay: LDH cytotoxicity (cell death) assay, EpiAirway model; type: cell-based
Method: Fresh, cell-free media was used as a blank. 50 μl substrate solution (12 ml Assay Buffer added to a fresh bottle of Substrate Mix, made according to the kit) was added to each well and the plates were incubates for 30 min at RT in the dark.

[6] = after feeding to rats; cited from earlier work
[7] = intraduodenally administered to rats; cited from earlier work
[8] = system: aminopeptidases; conditions: cited from earlier work

Compound: NCCN(CCN)/[N+]([O-])=N/O [diethylenetriamine/NO]
- NO release rate (time) [1]: approximately 20 hours

Compound: 2-alkyl-4-hydroxyquinolines [pyo compound]
- concentration producing ciliostasis / inhibiting ciliary motility [2]: 50 µg/mL

Compound: Octylphenolpoly(ethyleneglycolether)x [LDH Control]
- % TEER Reduction [3]: 100%
- % MTT [4]: 1%
- % LDH [5]: 100%

Compound: Phaseolus vulgaris hemagglutinin
- oral bioavailability [6]: more than 10%

Compound: CCN(CC)/[N+]([O-])=N/O.CCNCC [diethylamine/NO]
- NO release rate (time) [1]: < 3 min

Compound: 9-desglycinamide, 8-arginine vasopressin [DGAVP]
- bioavailability increase with 1% (w/v) polycarbophil vs aqueous solution [7]: 3-5 fold

Compound: CC(C)CC(N)B(O)O (stereo not shown) [boro-leucine]
- enzyme inhibition, times more effective than bestatin [8]: more than 100 times
- enzyme inhibition, times more effective than puromycin [8]: more than 1000 times
